These results are taken from patent US10563272B2, “Compositions comprising Metarhizium fungi and use thereof as a pesticide” (Cotton Research and Development Corporation, priority 2015, dated 2020).

In test [1] the test system is Bemisia tabaci b-type adults and nymphs. Briefly: Rate trial on Bollgard II cotton, Norwood 2011-2012 (Example 11): silverleaf whiteflies. The class given is in vivo. The conditions noted are these: DAT 511 250 mL, 500 mL, 1 L/ha; Pyriproxyfen 500 mL/ha; P<0.001. The protocol:
This trial was conducted on an irrigated Bollgard II® cotton crop on a commercial cotton farm at Norwood near Moree, NSW, in 2011-2012.
(§1) The following treatments were evaluated against Bemisia tabaci b-type adults and nymphs: • 1. 250 mL/ha DAT 511 spore in oil (1×10^7 spores/ml); • 2. 500 mL/ha DAT 511 spore in oil (1×10^7 spores/ml); • 3. 1 L/ha DAT 511 spore in oil (1×10^7 spores/ml); • 4. 500 mL/ha Pyriproxyfen (conventional insecticide); and • 5. Unsprayed (control).
(§2) The treatment plots were arranged in a randomized complete block design with three replicates per treatment. Each replicated plot measured 40 m wide (40 rows) and 90 m long.
Foliar applications of each treatment were made on 28 Feb. and 20 Mar. 2012. […] On each sampling date, 20 plants from each replicate were randomly selected and B. tabaci adults on one leaf from the 5th node below the terminal of each plant were counted. […]
(§3) In the case of nymphs, one leaf from the 5th node below the terminal of each of the 20 plants was cut, removed and carefully placed individually in a plastic bag. The plastic bags containing the leaves were taken to the laboratory and the B. tabaci nymphs were counted under a binocular microscope. Data of both adults and nymphs were expressed as numbers per leaf per treatment.

Test [2] has the same test system. Put plainly: Rate trial on Bollgard cotton, Cooinda St George 2011-2012 (Example 13): silverleaf whiteflies. To be noted: P<0.001; FIG. 50. The class given is in vivo. The protocol:
This trial was conducted on an irrigated Bollgard cotton crop on a commercial cotton farm at Cooinda, St George, Queensland, in 2011-2012.
as §1, §2
Foliar applications of each treatment were made on 12 Mar. and 26 Mar. 2012. […] On each sampling date, 20 plants from each replicate were randomly selected and B. tabaci adults on one leaf from the 5th node below the terminal of each plant were counted. […]
as §3

Take `CC(COc1ccc(Oc2ccccc2)cc1)Oc1ccccn1` (centres unmarked) [Pyriproxyfen]: the “SLW adults and nymphs versus the unsprayed” value in test [1] was “fewer”. Besides, the “silverleaf whitefly adults and nymphs versus unsprayed plots” value in test [2] was “Significantly fewer”.
